We go through 11 molecules from PubChem BioAssay (NCI).

Common to all, as to test: NCI-60 cell line screen, 48 h
In assay [1] the test system is IGROV1 ovarian.
In assay [2] the test system is 786-0 renal.
The subject of assay [3] is OVCAR-3 ovarian.
For assay [4], the system named is RPMI-8226 leukemia.
Assay [5] relates to DU-145 prostate.
Assay [6] has as its system NCI-H23 lung.
Assay [7] deals with SK-MEL-5 melanoma.
For assay [8], the system named is EKVX NSCLC.
The subject of assay [9] is CCRF-CEM leukemia.
Assay [10] deals with NCI-H460 lung.

The structures appear in SMILES notation. Where “and” joins values, the source holds several entries; their conditions need not be identical. Equal entries are not always repeated.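 How tested: cells in 96-well plates exposed to compound for 48 hours at five concentrations. At the GI50, growth is halved. TGI: total growth inhibition.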

Turning to `c1ccc(-c2oc(-c3ccccc3)c(CN3CCCCC3)c2CN2CCCCC2)cc1`, the GI50 in assay [1] was 1.73 µM; in assay [2], 2.8 µM; in [3] it was 2.92 µM; in [4], 1.66 µM; in assay [5], 7.72 µM; in assay [6] it was 3.21 µM. Besides, the GI50 in assay [7] is 1.59 µM; in assay [8] it was 2.99 µM; in assay [9], 2.54 µM; in assay [10], 3.25 µM. In addition, the TGI turned out to be 14.4 µM in assay [1]; 12.7 µM in assay [2]; 10.5 µM in assay [3]; 4.08 µM in assay [4]; 21.6 µM in [5]; 13 µM in assay [6]. Moreover, the TGI was determined as 3.08 µM in assay [7], 14.2 µM in [8], 9.97 µM in assay [9] and 14.2 µM in [10].
Consider `CC1CC2C3CCC4=CC(=O)C=CC4(C)C3(F)C(O)CC2(C)C1(O)C(=O)COP(=O)(O)O` (stereo not drawn), for which the GI50 was over 500 µM in assay [1]; over 500 µM in [2]; over 500 µM in assay [3]; 16.6 µM in [4]; over 500 µM in assay [5]; over 500 µM in assay [6]. The GI50 in assay [7], in assay [8], in assay [9] and in [10] was over 500 µM in each case. Besides, the TGI in assay [1], in assay [2], in [3], in assay [4], in assay [5] and in [6] was over 500 µM each time. The TGI in assay [7], in [8], in assay [9] and in assay [10] was over 500 µM throughout.
Turning to `COc1ccc(C(O)c2cc3c(N)c(C(=O)Nc4ccc(Cl)cc4)sc3nc2C)cc1` (stereo not drawn), the GI50 in assay [1] was 3.22 µM; in assay [2] it was 8.2 µM; in [3], 2 µM; in assay [4] it was 2.22 µM; in assay [5] it was 2.71 µM; in assay [6], 5.07 µM. The GI50 in assay [7] is 2.74 µM; in [8], 3.88 µM; in assay [9], 2.47 µM; in assay [10], 2.3 µM. For the same molecule, the TGI in assay [1] came to 28.6 µM; in assay [2] it was 31.8 µM; in [3], 4.78 µM; in assay [4], 9.32 µM; in [5] it was 7.66 µM; in assay [6] it was 52.5 µM. Also, the TGI is 10.2 µM in [7], 30.7 µM in [8], over 100 µM in assay [9] and 6.25 µM in assay [10].
On to `CCOC(=O)[C@@H](C)C[C@H](Cc1ccccc1)NC(=O)c1csc([C@@H](C[C@H](C(C)C)N(C)C(=O)[C@@H](NC(=O)[C@H]2CCCCN2C)C(C)(C)CC)OC(C)=O)n1`, for which the GI50 is 0.0021 µM in assay [1]; under 0.00167 µM in [2]; under 0.00167 µM in assay [3]; under 0.00167 µM in assay [4]; under 0.00167 µM in assay [5]; 0.00251 µM in [6]. The GI50 in [7] was under 0.00167 µM; in assay [8], 0.00232 µM; in assay [9], 0.00246 µM; in [10], under 0.00167 µM. Also, the TGI was over 16.7 µM in [1]; 4.86 µM in assay [2]; 4.18 µM in assay [4]; over 16.7 µM in assay [6]; 0.0294 µM in assay [7]; over 16.7 µM in assay [8]. Also, the values for the TGI in [9] and in assay [10] were over 8.65 µM and over 12.9 µM, respectively.
As for `CC(C)=CCc1cc2c(cc1O)C1=C(C(=O)C3=C(C1=O)S(=O)(=O)CCN3)C(C=C(C)C)O2` (stereo not drawn), the GI50 in assay [1] was 0.959 µM; in [2], 2.49 µM; in [3], 0.403 µM; in [4], 3.38 µM; in [5], 0.309 µM; in assay [6], 0.7 µM. Further, the GI50 in assay [7] is 0.284 µM; in [8] it was 1.55 µM; in [9], 0.696 µM; in assay [10], 0.454 µM. For the same molecule, the TGI came out at 4.76 µM in assay [1]; 7.03 µM in assay [2]; 1.37 µM in assay [3]; 10.1 µM in assay [4]; 0.597 µM in [5]; 4.01 µM in assay [6]. In addition, the TGI in assay [7] is 0.66 µM; in assay [8], 6.93 µM; in assay [9] it was 8.98 µM; in assay [10] it was 2.3 µM.
On to `O=C(O)C1=C/C(=C(/c2ccccc2)c2cc(C(=O)O)c(O)c3ccccc23)c2ccccc2C1=O`, for which the TGI in assay [1], in assay [2], in [3], in assay [4], in [5] and in [6] was over 100 µM in each case. Further, the TGI in [7], in [8], in [9] and in assay [10] was over 100 µM each time.
With `COc1ccc2c(c1)OC(N)=C(C#N)C2c1cc(OC)c(OC)c(OC)c1` (stereo not drawn), the GI50 in assay [1] is 0.0463 µM; in assay [2], 0.0538 µM; in assay [3] it was 0.0253 µM; in assay [4] it was 0.0389 µM; in assay [5], 0.0279 µM; in assay [6], 0.0362 µM. In addition, the GI50 in assay [7] was 0.0317 µM; in assay [8], 0.251 µM; in [9], 0.0337 µM; in assay [10] it was 0.0345 µM. Also, the TGI is over 51 µM in assay [1]; over 100 µM in assay [2]; 0.0648 µM in assay [3]; over 100 µM in [4]; 0.0802 µM in assay [5]; over 47.7 µM in assay [6]. In addition, the TGI in assay [8] and in assay [9] was over 100 µM throughout.
For `NS(=O)(=O)c1ccc(Nc2cc(-c3ccc(O)c(F)c3)[nH]n2)cc1`, the GI50 in assay [1] is over 25 µM; in assay [2], over 25 µM; in assay [3], 9.43 µM; in assay [4], over 25 µM; in assay [5], over 25 µM; in assay [6] it was over 25 µM. For the same molecule, the GI50 in assay [7] is 10.7 µM; in assay [8] it was over 25 µM; in assay [9], 13.5 µM; in assay [10], over 25 µM. Further, the TGI in assay [1], in assay [2], in assay [3], in assay [4], in assay [5] and in assay [6] was over 25 µM in each case. Besides, the TGI in [7], in [8], in assay [9] and in assay [10] was over 25 µM throughout.
As to `CC(=O)OCC1OC(n2c(=S)n(-c3ccc([N+](=O)[O-])cc3)c(=O)c3ccccc32)C(OC(C)=O)C(OC(C)=O)C1OC(C)=O` (stereo not drawn), the GI50 is 29.2 µM and 20.4 µM in [1]; 17.9 µM in assay [2]; 20 µM in [3]; 4.41 µM and 19.9 µM in assay [4]; 8.06 µM and 25.6 µM in [7]; 18.9 µM and 28.2 µM in assay [8]. For the same molecule, the GI50 in assay [9] is 5.11 µM and 15.4 µM. For the same molecule, the TGI in [1] was > 71 µM and 54.5 µM; in [2] it was 45.6 µM and 39 µM; in assay [3] it was 47.5 µM and 49.8 µM; in assay [4], 17.8 µM and > 100 µM; in assay [5], over 100 µM; in assay [6], > 83.2 µM and 46.4 µM. Further, the TGI was 23.3 µM and > 100 µM in [7]; > 70 µM and 57.4 µM in assay [8]; 96.9 µM and > 100 µM in [9]; > 69.8 µM and 68.2 µM in [10].
As for `O=C(Nc1ccc(Oc2ccc(F)cc2)cc1)[C@@H]1C[C@@H](Cc2ccc(F)cc2)CN1C(=O)Cn1ccnn1`, the GI50 in assay [1] was 8 µM; in assay [2], 10.5 µM; in assay [3], 8.12 µM; in [4], 3.74 µM; in [5], 13.6 µM; in [6], 12.1 µM. The GI50 was 9.12 µM in [7], 7.79 µM in assay [8], 5.24 µM in [9] and 5.37 µM in assay [10]. The TGI in assay [1] is 28.2 µM; in assay [2], 34.2 µM; in [3], 26.7 µM; in assay [4] it was 26.4 µM; in assay [5], over 85.7 µM; in assay [6], 35.5 µM. Further, the TGI in assay [7] is 22.6 µM; in [8], 40.4 µM; in assay [9], over 100 µM; in [10] it was 21.4 µM.
For `COc1cc2cc(Oc3ccc(NC(=O)Nc4cc(C(F)(F)F)cc(C(F)(F)F)c4)cc3)c(C)nc2cc1OCCN1CCOCC1`, the GI50 in [1] is 1.54 µM; in assay [2], 1.28 µM; in assay [3], 1.43 µM; in assay [4], 0.84 µM; in assay [5] it was 1.93 µM; in [6], 1.66 µM. Further, the GI50 in [7] is 0.885 µM; in [8] it was 1.64 µM; in assay [9], 1.41 µM; in assay [10] it was 1.66 µM. Further, the TGI in assay [1] was found to be 6.9 µM; in [2] it was 3.65 µM; in [3], 5.28 µM; in [4], 2.12 µM; in [5], 7.05 µM; in [6], 6.69 µM. The TGI in [7] was 1.66 µM; in assay [8], 6.68 µM; in assay [9], 6.57 µM; in assay [10] it was 5.52 µM.
